From article PMC7698151, “Evidence for Pentapeptide-Dependent and Independent CheB Methylesterases” (International Journal of Molecular Sciences, 2020)
Values joined by “and” are separate entries in the source; they are usually repeats but may differ in a detail not shown here. Equal values may be shown once. Where no end group is shown, it is not given here.

Key:
[1] = molecular target: T1, CheB2 (Pseudomonas aeruginosa, UniProt Q9I6V9); test: Microcalorimetric titration (ITC) of CheB2 with the McpB pentapeptide; design: species or system Pseudomonas aeruginosa PAO1; settings: 25 °C, 15-40 μM protein in 5-mM Tris/HCl, 5-mM Pipes, 5-mM Mes, pH 7.0, titrated with 1-7 mM peptide, one binding site model, read-out: dissociation constant (KD)
T1 construct: His-tag (pET28b) (N); made in house; host or cells: E. coli BL21 (DE3)
T1 sequence (Q9I6V9 whole entry): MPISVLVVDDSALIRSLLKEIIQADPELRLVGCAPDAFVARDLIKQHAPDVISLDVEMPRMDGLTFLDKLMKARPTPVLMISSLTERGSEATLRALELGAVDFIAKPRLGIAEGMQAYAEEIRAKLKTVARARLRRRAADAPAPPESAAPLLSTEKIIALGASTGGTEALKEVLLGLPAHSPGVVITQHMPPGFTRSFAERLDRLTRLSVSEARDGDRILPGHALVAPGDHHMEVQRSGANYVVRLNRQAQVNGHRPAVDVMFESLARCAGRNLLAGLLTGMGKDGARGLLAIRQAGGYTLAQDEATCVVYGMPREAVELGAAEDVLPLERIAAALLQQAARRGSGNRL
Procedure: To verify which CheB homolog interacts with this peptide, the four CheB homologs were overexpressed in E. coli, purified, and submitted to microcalorimetric titrations with the pentapeptide of the McpB receptor, GWEEF.
Microcalorimetric titrations of the four CheB homologs (15 to 40 μM) with 14-μL aliquots (1 to 7 mM) of the GWEEF pentapeptide. […] Data were fitted using the “one binding site model” of the MicroCal version of ORIGIN.
(§1) All experiments were conducted on a VP microcalorimeter (Microcal, Amherst, MA, USA) at 25 °C. For the analysis of the CheB homologs of P. aeruginosa, 15–40 μM of proteins (dialyzed into 5-mM Tris/HCl, 5-mM Pipes, and 5-mM Mes, pH 7.0) were placed into the sample cell and titrated with 1–7-mM solution of the GWEEF peptide (synthesized by Biomedal S.L., Seville, Spain). […] All ligand solutions were prepared in dialysis buffer immediately before use. The mean enthalpies measured from the injection of the peptide into the buffer were subtracted from the raw titration data prior to data analysis with the “one binding site model” of the MicroCal version of ORIGIN.

[2] = molecular target: T2, CheB2 D55E mutant protein (Pseudomonas aeruginosa, UniProt Q9I6V9, D55E); test: Microcalorimetric titration (ITC) of the CheB2 D55E mutant with the GWEEF peptide; format: binding, Pseudomonas aeruginosa PAO1
T2 construct: His-tag (pET28b) (N); made in house; host or cells: E. coli BL21 (DE3)
T2 sequence (Q9I6V9 1-349 D55E): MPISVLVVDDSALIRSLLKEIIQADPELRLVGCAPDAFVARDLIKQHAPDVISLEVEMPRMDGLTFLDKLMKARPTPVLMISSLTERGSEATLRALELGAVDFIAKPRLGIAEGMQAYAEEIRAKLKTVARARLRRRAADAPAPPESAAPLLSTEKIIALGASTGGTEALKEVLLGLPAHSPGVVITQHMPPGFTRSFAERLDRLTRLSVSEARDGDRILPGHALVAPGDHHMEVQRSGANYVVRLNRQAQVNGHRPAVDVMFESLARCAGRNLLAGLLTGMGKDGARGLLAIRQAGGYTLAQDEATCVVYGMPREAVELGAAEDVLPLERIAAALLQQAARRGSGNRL
Procedure: as §1

[3] = system: CheR from E. coli; settings: cited from earlier work
Source text: This pentapeptide, NWETF, represents an additional binding site for CheR and CheB [8, 9]. […] St ...

| Substance | Kd [1] [mM] | Kd [2] [µM] | Kd [3] |
| --- | --- | --- | --- |
| GWEEF [GWEEF] | 0.093 | 56 ± 14 |  |
| NWETF [C-terminal pentapeptide of E. coli Tar/Tsr and of eight P. atrosepticum SCRI1043 chemoreceptors] |  |  | 2 µM and ~2 µM |
